Measured values taken from US8686044B2, “Amide derivative, pest control agent containing the amide derivative, and use of the amide derivative” (Mitsui Chemicals Agro, Inc., priority 2008, dated 2014).

Assays:
Type in all cases: in vivo
Plutella xylostella = assay: Pesticidal test against Plutella xylostella (cabbage leaf dip); details: foliar, 144 h, 2-stage larvae, examined after 6 days, 25° C., read-out: pesticidal rate; for pest or weed control at 1 ppm: concentration 1 ppm; for pest or weed control at 10 ppm: concentration 10 ppm
Method in brief: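 Cabbage leaf pieces dipped 30 s in test solution at a predetermined concentration, air-dried, then offered to 2nd-instar larvae, five per group in duplicate. Held at 25° C; living and dead larvae counted after 6 days.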

Spodoptera litura = assay: Pesticidal test against Spodoptera litura (cabbage leaf dip); details: foliar, 144 h, 2-stage larvae, examined after 6 days, 25° C., read-out: pesticidal rate; for pest or weed control at 10 ppm: concentration 10 ppm; for pest or weed control at 1 ppm: concentration 1 ppm
Method in brief: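 Cabbage leaf pieces dipped 30 seconds in compound solution at a predetermined concentration and air-dried, then offered to second-stage larvae, five per group in two replicates. Held at 25° C. Living and dead larvae counted after 6 days.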

Musca domestica = assay: Pesticidal test against Musca domestica (petri dish dry film); details: 24 h, concentration 100 ppm, female adults, examined after 1 day, 25° C., read-out: pesticidal rate
Description: Pesticidal Test against Musca domestica
1 ml of an acetone solution in which a test compound had been prepared at a predetermined concentration was added dropwise to a petri dish having a diameter of 9 cm, and air-dried, and then the female adults of Musca domestica were released and the petri dish was capped. They were left to stand in a thermostatic chamber at 25° C., and the numbers of the living pests and the dead pests were examined after 1 day. The test was carried out with five larvae per group in two replicates.

Laodelphax striatellus = assay: Pesticidal test against Laodelphax striatellus (rice seedling spray); details: 144 h, concentration 100 ppm, 3-stage larvae, examined after 6 days, 25° C., read-out: pesticidal rate
Method in brief: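 Rice seedlings sprayed with 2.5 ml acetone solution of compound at a predetermined concentration, air-dried, then infested with third-stage Laodelphax striatellus larvae in capped water-containing tubes at 25 °C. Living and dead insects counted after 6 days; ten larvae per group, two replicates.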

N#Cc1ccc(C(=O)Nc2c(Br)cc(C(F)(C(F)(F)F)C(F)(F)F)cc2C(F)(F)F)c(F)c1NC(=O)c1ccc(Cl)nc1 [1-1968, N-(3-(2-bromo-4-(perfluoropropan-2-yl)-6-(trifluoromethyl)phenylcarbamoyl)-6-cyano-2-fluorophenyl)-6-chloronicotinamide]
≥ 70%: pest or weed control at 1 ppm (Plutella xylostella) | pest or weed control at 10 ppm (Spodoptera litura) | pest or weed control at 100 ppm (Musca domestica)

O=C(Nc1c(Br)cc(C(F)(C(F)(F)F)C(F)(F)F)cc1C(F)(F)F)c1cccc(NC(=O)c2ccccc2Cl)c1 [6-272]
≥ 70%: pest or weed control at 1 ppm (Plutella xylostella) | pest or weed control at 1 ppm (Spodoptera litura) | pest or weed control at 100 ppm (Musca domestica)

O=C(Nc1c(Br)cc(C(F)(C(F)(F)F)C(F)(F)F)cc1C(F)(F)F)c1cccc(NC(=O)c2ccc(F)cc2Cl)c1 [6-293]
≥ 70%: pest or weed control at 1 ppm (Plutella xylostella) | pest or weed control at 1 ppm (Spodoptera litura) | pest or weed control at 100 ppm (Musca domestica)

CN(C(=O)c1c(F)cccc1F)c1cccc(C(=O)Nc2c(Br)cc(C(F)(C(F)(F)F)C(F)(F)C(F)(F)F)cc2Br)c1F (stereo not drawn) [7-1204]
≥ 70%: pest or weed control at 1 ppm (Plutella xylostella) | pest or weed control at 1 ppm (Spodoptera litura) | pest or weed control at 100 ppm (Laodelphax striatellus)

CN(C(=O)c1cccnc1Cl)c1cccc(C(=O)Nc2c(Br)cc(C(F)(C(F)(F)F)C(F)(F)C(F)(F)F)cc2Br)c1F (stereo not drawn) [7-1218]
≥ 70%: pest or weed control at 1 ppm (Plutella xylostella) | pest or weed control at 1 ppm (Spodoptera litura) | pest or weed control at 100 ppm (Laodelphax striatellus)

CN(C(=O)c1ccc(Cl)nc1)c1cccc(C(=O)Nc2c(Br)cc(C(F)(C(F)(F)F)C(F)(F)C(F)(F)F)cc2Br)c1F (stereo not drawn) [7-1225]
≥ 70%: pest or weed control at 1 ppm (Plutella xylostella) | pest or weed control at 1 ppm (Spodoptera litura) | pest or weed control at 100 ppm (Laodelphax striatellus)

CN(C(=O)c1ccccc1F)c1cccc(C(=O)Nc2c(I)cc(C(F)(C(F)(F)F)C(F)(F)C(F)(F)F)cc2I)c1F (stereo not drawn) [7-1339]
≥ 70%: pest or weed control at 1 ppm (Plutella xylostella) | pest or weed control at 1 ppm (Spodoptera litura) | pest or weed control at 100 ppm (Laodelphax striatellus)

CN(C(=O)c1ccc(F)cc1)c1cccc(C(=O)Nc2c(I)cc(C(F)(C(F)(F)F)C(F)(F)C(F)(F)F)cc2I)c1F (stereo not drawn) [7-1341]
≥ 70%: pest or weed control at 1 ppm (Plutella xylostella) | pest or weed control at 1 ppm (Spodoptera litura) | pest or weed control at 100 ppm (Laodelphax striatellus)

CN(C(=O)c1cccnc1Cl)c1cccc(C(=O)Nc2c(I)cc(C(F)(C(F)(F)F)C(F)(F)C(F)(F)F)cc2I)c1F (stereo not drawn) [7-1374]
≥ 70%: pest or weed control at 1 ppm (Plutella xylostella) | pest or weed control at 1 ppm (Spodoptera litura) | pest or weed control at 100 ppm (Laodelphax striatellus)

CN(C(=O)c1cccnc1)c1cccc(C(=O)Nc2c(Br)cc(C(F)(C(F)(F)F)C(F)(F)F)cc2C(F)(F)F)c1F [7-1608]
≥ 70%: pest or weed control at 1 ppm (Plutella xylostella) | pest or weed control at 1 ppm (Spodoptera litura) | pest or weed control at 100 ppm (Laodelphax striatellus)

CN(C(=O)c1cccnc1Cl)c1cccc(C(=O)Nc2c(Br)cc(C(F)(C(F)(F)F)C(F)(F)F)cc2C(F)(F)F)c1F [7-1610]
≥ 70%: pest or weed control at 1 ppm (Plutella xylostella) | pest or weed control at 1 ppm (Spodoptera litura) | pest or weed control at 100 ppm (Laodelphax striatellus)

CN(C(=O)c1ccncc1)c1cccc(C(=O)Nc2c(Br)cc(C(F)(C(F)(F)F)C(F)(F)F)cc2C(F)(F)F)c1F [7-1639]
≥ 70%: pest or weed control at 1 ppm (Plutella xylostella) | pest or weed control at 1 ppm (Spodoptera litura) | pest or weed control at 100 ppm (Laodelphax striatellus)

CN(C(=O)c1cccc(C#N)c1)c1cccc(C(=O)Nc2c(Br)cc(C(F)(C(F)(F)F)C(F)(F)C(F)(F)F)cc2C(F)(F)F)c1F (stereo not drawn) [7-1672]
≥ 70%: pest or weed control at 1 ppm (Plutella xylostella) | pest or weed control at 1 ppm (Spodoptera litura) | pest or weed control at 100 ppm (Laodelphax striatellus)

CN(C(=O)c1ccc(C#N)cc1)c1cccc(C(=O)Nc2c(Br)cc(C(F)(C(F)(F)F)C(F)(F)C(F)(F)F)cc2C(F)(F)F)c1F (stereo not drawn) [7-1673]
≥ 70%: pest or weed control at 1 ppm (Plutella xylostella) | pest or weed control at 1 ppm (Spodoptera litura) | pest or weed control at 100 ppm (Laodelphax striatellus)

CN(C(=O)c1cccnc1Cl)c1cccc(C(=O)Nc2c(I)cc(C(F)(C(F)(F)F)C(F)(F)C(F)(F)F)cc2C(F)(F)F)c1F (stereo not drawn) [7-1844]
≥ 70%: pest or weed control at 1 ppm (Plutella xylostella) | pest or weed control at 1 ppm (Spodoptera litura) | pest or weed control at 100 ppm (Laodelphax striatellus)

CN(C(=O)c1ccccc1)c1cc(C(=O)Nc2c(Br)cc(C(F)(C(F)(F)F)C(F)(F)F)cc2C(F)(F)F)ccc1F [7-3348]
≥ 70%: pest or weed control at 1 ppm (Plutella xylostella) | pest or weed control at 1 ppm (Spodoptera litura) | pest or weed control at 100 ppm (Laodelphax striatellus)

CN(C(=O)c1ccc(C#N)cc1)c1cc(C(=O)Nc2c(Br)cc(C(F)(C(F)(F)F)C(F)(F)F)cc2C(F)(F)F)ccc1F [7-3369]
≥ 70%: pest or weed control at 1 ppm (Plutella xylostella) | pest or weed control at 1 ppm (Spodoptera litura) | pest or weed control at 100 ppm (Laodelphax striatellus)

CN(C(=O)c1ccccc1)c1cccc(C(=O)Nc2c(Br)cc(C(F)(C(F)(F)F)C(F)(F)F)cc2I)c1F [7-5902]
≥ 70%: pest or weed control at 1 ppm (Plutella xylostella) | pest or weed control at 1 ppm (Spodoptera litura) | pest or weed control at 100 ppm (Laodelphax striatellus)

CN(C(=O)c1cccnc1Cl)c1cccc(C(=O)Nc2c(Br)cc(C(F)(C(F)(F)F)C(F)(F)F)cc2I)c1F [7-5903]
≥ 70%: pest or weed control at 1 ppm (Plutella xylostella) | pest or weed control at 1 ppm (Spodoptera litura) | pest or weed control at 100 ppm (Laodelphax striatellus)

CN(C(=O)c1cccc(F)c1)c1cccc(C(=O)Nc2c(I)cc(C(F)(C(F)(F)F)C(F)(F)C(F)(F)F)cc2I)c1 (stereo not drawn) [7-5904]
≥ 70%: pest or weed control at 1 ppm (Plutella xylostella) | pest or weed control at 1 ppm (Spodoptera litura) | pest or weed control at 100 ppm (Laodelphax striatellus)

CN(C(=O)c1cccc(F)c1)c1cccc(C(=O)Nc2c(Br)cc(C(F)(C(F)(F)F)C(F)(F)C(F)(F)F)cc2Br)c1 (stereo not drawn) [7-5906]
≥ 70%: pest or weed control at 1 ppm (Plutella xylostella) | pest or weed control at 1 ppm (Spodoptera litura) | pest or weed control at 100 ppm (Laodelphax striatellus)

CN(C(=O)c1ccc(F)cc1)c1cccc(C(=O)Nc2c(Br)cc(C(F)(C(F)(F)F)C(F)(F)C(F)(F)F)cc2Br)c1 (stereo not drawn) [7-5907]
≥ 70%: pest or weed control at 1 ppm (Plutella xylostella) | pest or weed control at 1 ppm (Spodoptera litura) | pest or weed control at 100 ppm (Laodelphax striatellus)

CN(C(=O)c1cncnc1)c1cccc(C(=O)Nc2c(I)cc(C(F)(C(F)(F)F)C(F)(F)F)cc2C(F)(F)F)c1 [7-5909]
≥ 70%: pest or weed control at 1 ppm (Plutella xylostella) | pest or weed control at 10 ppm (Spodoptera litura) | pest or weed control at 100 ppm (Laodelphax striatellus)

CN(C(=O)c1cccnc1Cl)c1cccc(C(=O)Nc2c(Br)cc(C(F)(F)C(F)(F)F)cc2C(F)(F)F)c1 [7-5912]
≥ 70%: pest or weed control at 10 ppm (Plutella xylostella) | pest or weed control at 10 ppm (Spodoptera litura) | pest or weed control at 100 ppm (Laodelphax striatellus)

CN(C(=O)c1cccc(NC(=O)c2ccc(C#N)cc2)c1)c1c(Br)cc(C(F)(C(F)(F)F)C(F)(F)F)cc1C(F)(F)F [8-289, N-(2-bromo-4-(perfluoropropan-2-yl)-6-(trifluoromethyl)phenyl)-3-(4-cyanobenzamide)-N-methylbenzamide]
≥ 70%: pest or weed control at 1 ppm (Plutella xylostella) | pest or weed control at 1 ppm (Spodoptera litura) | pest or weed control at 100 ppm (Laodelphax striatellus)

CN(C(=O)c1cccc(NC(=O)c2cccnc2Cl)c1)c1c(Br)cc(C(F)(C(F)(F)F)C(F)(F)F)cc1C(F)(F)F [8-304]
≥ 70%: pest or weed control at 1 ppm (Plutella xylostella) | pest or weed control at 1 ppm (Spodoptera litura) | pest or weed control at 100 ppm (Laodelphax striatellus)

CN(C(=O)c1cccc(NC(=O)c2cccnc2Cl)c1)c1c(C(F)(F)F)cc(C(F)(C(F)(F)F)C(F)(F)F)cc1C(F)(F)F [8-840]
≥ 70%: pest or weed control at 10 ppm (Plutella xylostella) | pest or weed control at 1 ppm (Spodoptera litura) | pest or weed control at 100 ppm (Laodelphax striatellus)

CN(C(=O)c1ccccc1)c1cccc(C(=O)N(C)c2c(Br)cc(C(F)(C(F)(F)F)C(F)(F)F)cc2C(F)(F)F)c1 [9-270]
≥ 70%: pest or weed control at 1 ppm (Plutella xylostella) | pest or weed control at 1 ppm (Spodoptera litura) | pest or weed control at 100 ppm (Laodelphax striatellus)

CN(C(=O)c1cccc(C#N)c1)c1cccc(C(=O)N(C)c2c(Br)cc(C(F)(C(F)(F)F)C(F)(F)F)cc2C(F)(F)F)c1 [9-290]
≥ 70%: pest or weed control at 1 ppm (Plutella xylostella) | pest or weed control at 1 ppm (Spodoptera litura) | pest or weed control at 100 ppm (Laodelphax striatellus)

CN(C(=O)c1ccc(C#N)cc1)c1cccc(C(=O)N(C)c2c(Br)cc(C(F)(C(F)(F)F)C(F)(F)F)cc2C(F)(F)F)c1 [9-291]
≥ 70%: pest or weed control at 1 ppm (Plutella xylostella) | pest or weed control at 1 ppm (Spodoptera litura) | pest or weed control at 100 ppm (Laodelphax striatellus)

CN(C(=O)c1cccnc1Cl)c1cccc(C(=O)N(C)c2c(Br)cc(C(F)(C(F)(F)F)C(F)(F)F)cc2C(F)(F)F)c1 [9-306]
≥ 70%: pest or weed control at 1 ppm (Plutella xylostella) | pest or weed control at 1 ppm (Spodoptera litura) | pest or weed control at 100 ppm (Laodelphax striatellus)
